Reference: US9446039B2, “Aminoheteroaryl compounds as MTH1 inhibitors” (CEMM—FORSCHUNGSZENTRUM FÜR MOLEKULARE MEDIZIN GMBH, priority 2012, dated 2016)

How the values were obtained:
Type in all cases: binding
[1] = molecular target: T1, SW480 colon carcinoma cells lysate proteins (Homo sapiens, UniProt O60664); settings: PreyGene PLIN3
T1 sequence (O60664 1-434): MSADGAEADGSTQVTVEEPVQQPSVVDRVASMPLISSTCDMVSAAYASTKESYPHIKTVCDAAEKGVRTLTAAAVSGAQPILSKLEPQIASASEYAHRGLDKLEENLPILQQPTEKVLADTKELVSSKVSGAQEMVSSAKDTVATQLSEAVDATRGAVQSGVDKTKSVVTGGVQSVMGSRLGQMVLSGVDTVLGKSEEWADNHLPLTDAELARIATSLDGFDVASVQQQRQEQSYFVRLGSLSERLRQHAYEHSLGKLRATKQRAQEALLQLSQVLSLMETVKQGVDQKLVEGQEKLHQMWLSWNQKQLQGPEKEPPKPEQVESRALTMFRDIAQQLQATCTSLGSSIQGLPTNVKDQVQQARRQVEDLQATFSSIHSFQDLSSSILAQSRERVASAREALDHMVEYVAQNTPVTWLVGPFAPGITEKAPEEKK

[2] = molecular target: T2, SW480 colon carcinoma cells lysate proteins (Homo sapiens, UniProt P29373); settings: PreyGene CRABP2
T2 sequence (P29373 1-138): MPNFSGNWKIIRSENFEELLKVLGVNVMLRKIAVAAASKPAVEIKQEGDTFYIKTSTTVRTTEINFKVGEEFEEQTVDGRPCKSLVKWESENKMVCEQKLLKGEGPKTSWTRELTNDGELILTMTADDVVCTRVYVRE

[3] = molecular target: T3, SW480 colon carcinoma cells lysate proteins (Homo sapiens, UniProt Q9Y383); settings: PreyGene LUC7L2
T3 sequence (Q9Y383 1-392): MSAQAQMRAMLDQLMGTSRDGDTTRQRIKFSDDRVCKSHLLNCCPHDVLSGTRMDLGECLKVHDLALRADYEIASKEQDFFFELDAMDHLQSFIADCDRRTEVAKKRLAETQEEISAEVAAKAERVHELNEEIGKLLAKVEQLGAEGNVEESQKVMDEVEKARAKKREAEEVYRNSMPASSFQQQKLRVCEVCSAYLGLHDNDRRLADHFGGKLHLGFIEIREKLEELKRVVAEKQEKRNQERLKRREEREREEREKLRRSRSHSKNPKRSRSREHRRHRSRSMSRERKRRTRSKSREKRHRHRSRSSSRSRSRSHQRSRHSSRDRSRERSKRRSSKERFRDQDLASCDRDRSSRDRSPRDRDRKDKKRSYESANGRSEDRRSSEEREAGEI

[4] = molecular target: SW480 colon carcinoma cells lysate proteins (Homo sapiens, UniProt Q92616); settings: PreyGene GCN1L1; SW480 cells
Sequence of SW480 colon carcinoma cells lysate proteins (Homo sapiens, UniProt Q92616) (Q92616 whole entry): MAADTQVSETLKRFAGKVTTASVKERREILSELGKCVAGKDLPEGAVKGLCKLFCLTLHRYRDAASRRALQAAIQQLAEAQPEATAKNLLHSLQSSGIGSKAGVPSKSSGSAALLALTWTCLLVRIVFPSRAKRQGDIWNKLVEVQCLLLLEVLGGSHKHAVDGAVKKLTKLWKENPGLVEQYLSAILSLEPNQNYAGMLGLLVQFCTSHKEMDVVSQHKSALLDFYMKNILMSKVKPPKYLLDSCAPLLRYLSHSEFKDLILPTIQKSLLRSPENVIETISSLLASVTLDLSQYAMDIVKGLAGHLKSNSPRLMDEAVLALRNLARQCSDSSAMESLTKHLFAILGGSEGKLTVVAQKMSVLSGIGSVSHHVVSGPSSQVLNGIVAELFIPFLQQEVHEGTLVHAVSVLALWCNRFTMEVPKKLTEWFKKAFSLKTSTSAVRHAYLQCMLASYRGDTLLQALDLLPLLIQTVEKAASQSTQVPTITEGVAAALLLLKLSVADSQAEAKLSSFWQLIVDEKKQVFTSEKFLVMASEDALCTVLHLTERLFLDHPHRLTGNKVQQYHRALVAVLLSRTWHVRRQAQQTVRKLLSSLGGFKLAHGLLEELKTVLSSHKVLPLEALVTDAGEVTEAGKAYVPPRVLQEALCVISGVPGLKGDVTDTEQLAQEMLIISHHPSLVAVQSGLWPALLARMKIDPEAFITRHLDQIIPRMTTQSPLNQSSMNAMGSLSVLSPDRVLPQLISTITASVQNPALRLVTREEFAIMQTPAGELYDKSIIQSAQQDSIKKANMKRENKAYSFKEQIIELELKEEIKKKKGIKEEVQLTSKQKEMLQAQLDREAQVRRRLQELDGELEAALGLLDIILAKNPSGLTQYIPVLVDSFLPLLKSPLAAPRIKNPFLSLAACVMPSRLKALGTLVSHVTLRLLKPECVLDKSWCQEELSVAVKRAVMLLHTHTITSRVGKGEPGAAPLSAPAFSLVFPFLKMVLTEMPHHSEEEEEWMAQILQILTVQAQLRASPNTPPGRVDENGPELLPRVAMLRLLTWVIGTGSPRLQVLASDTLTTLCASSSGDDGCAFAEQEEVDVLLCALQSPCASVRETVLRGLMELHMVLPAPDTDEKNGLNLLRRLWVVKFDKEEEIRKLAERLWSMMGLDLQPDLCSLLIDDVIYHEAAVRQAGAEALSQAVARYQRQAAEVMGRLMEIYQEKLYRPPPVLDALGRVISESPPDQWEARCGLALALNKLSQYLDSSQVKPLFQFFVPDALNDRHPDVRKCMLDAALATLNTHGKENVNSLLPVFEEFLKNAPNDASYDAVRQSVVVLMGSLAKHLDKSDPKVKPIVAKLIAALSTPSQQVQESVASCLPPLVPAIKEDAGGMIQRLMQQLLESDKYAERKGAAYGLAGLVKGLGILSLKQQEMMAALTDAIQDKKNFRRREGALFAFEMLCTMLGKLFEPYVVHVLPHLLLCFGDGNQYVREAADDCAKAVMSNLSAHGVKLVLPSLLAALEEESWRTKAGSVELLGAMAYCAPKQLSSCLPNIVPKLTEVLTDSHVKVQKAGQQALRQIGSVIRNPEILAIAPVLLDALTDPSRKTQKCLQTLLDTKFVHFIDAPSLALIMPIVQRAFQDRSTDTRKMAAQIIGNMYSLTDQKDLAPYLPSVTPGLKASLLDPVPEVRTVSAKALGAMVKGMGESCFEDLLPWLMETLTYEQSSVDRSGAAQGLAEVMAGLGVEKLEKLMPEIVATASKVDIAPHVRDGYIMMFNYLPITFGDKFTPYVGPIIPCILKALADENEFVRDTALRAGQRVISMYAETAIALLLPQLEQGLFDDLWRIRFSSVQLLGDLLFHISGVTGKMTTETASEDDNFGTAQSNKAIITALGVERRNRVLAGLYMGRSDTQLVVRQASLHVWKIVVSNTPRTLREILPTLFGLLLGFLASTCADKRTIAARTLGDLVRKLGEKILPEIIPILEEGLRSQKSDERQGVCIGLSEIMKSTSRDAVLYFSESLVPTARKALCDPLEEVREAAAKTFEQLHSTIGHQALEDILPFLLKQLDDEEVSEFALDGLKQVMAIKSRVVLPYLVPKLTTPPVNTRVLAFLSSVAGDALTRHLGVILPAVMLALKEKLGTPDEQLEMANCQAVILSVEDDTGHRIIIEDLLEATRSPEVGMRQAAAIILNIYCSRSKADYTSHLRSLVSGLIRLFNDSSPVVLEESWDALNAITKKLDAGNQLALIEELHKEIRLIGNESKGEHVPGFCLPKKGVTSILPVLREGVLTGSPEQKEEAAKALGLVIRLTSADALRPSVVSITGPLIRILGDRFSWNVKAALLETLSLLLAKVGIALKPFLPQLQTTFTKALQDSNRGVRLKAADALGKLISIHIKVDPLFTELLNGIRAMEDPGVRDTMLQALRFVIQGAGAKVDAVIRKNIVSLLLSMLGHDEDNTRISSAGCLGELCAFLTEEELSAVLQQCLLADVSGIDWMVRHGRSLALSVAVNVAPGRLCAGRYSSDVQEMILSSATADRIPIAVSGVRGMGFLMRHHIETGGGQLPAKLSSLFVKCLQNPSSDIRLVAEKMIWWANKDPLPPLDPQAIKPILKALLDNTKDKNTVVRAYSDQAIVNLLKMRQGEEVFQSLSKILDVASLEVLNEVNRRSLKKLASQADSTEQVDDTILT

[5] = molecular target: T4, SW480 colon carcinoma cells lysate proteins (Homo sapiens, UniProt P30043); settings: PreyGene BLVRB
T4 sequence (P30043 1-206): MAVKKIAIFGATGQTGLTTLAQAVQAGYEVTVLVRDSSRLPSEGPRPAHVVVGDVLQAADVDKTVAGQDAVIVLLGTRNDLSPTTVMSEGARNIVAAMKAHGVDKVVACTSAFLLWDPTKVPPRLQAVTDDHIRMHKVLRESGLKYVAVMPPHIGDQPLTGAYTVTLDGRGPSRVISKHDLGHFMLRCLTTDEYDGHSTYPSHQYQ

[6] = molecular target: T5, SW480 colon carcinoma cells lysate proteins (Homo sapiens, UniProt Q9UJZ1); settings: PreyGene STOML2; SW480 cells
T5 sequence (Q9UJZ1 29-356): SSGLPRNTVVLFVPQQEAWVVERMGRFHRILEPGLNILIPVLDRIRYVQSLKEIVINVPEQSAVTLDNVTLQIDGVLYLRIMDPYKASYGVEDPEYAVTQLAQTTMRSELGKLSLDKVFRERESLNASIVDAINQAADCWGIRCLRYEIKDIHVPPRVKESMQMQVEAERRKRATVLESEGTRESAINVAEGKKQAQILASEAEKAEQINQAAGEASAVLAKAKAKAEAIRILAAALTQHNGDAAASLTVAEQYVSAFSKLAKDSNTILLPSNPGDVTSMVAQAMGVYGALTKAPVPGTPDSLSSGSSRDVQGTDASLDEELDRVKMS

`C[C@H](Oc1cc(-c2cnn(C3CCNCC3)c2)cnc1N)c1c(Cl)ccc(F)c1Cl` [(5)-crizotinib] was tested, and the AvgP [1] was 0.8429, the “SC.Exp. 1-1” value [1] was 4 and the “SC.Exp. 1-2” value [1] was 3. The “SC.Exp. 2-1” value [1] was 3, the “SC.Exp. 2-2” value [1] was 3 and the “Sum (SC.Exp.)” value [1] was 13. For the same compound, the AvgP [2] was 0.2533, the “SC.Exp. 1-1” value [2] was 4 and the “SC.Exp. 1-2” value [2] was 1. The “SC.Exp. 2-1” value [2] was 0, the “SC.Exp. 2-2” value [2] was 0 and the “Sum (SC.Exp.)” value [2] was 5. For the same compound, the AvgP [3] was 0.3775, the “SC.Exp. 1-1” value [3] was 3 and the “SC.Exp. 1-2” value [3] was 3. For the same compound, the “SC.Exp. 2-1” value [3] was 0, the “SC.Exp. 2-2” value [3] was 0 and the “Sum (SC.Exp.)” value [3] was 6. The AvgP [4] was 0, the “SC.Exp. 1-1” value [4] was 37 and the “SC.Exp. 1-2” value [4] was 34. For the same compound, the “SC.Exp. 2-1” value [4] was 37, the “SC.Exp. 2-2” value [4] was 37 and the “SC.Exp. Sum” value [4] was 145. For the same compound, the AvgP [5] was 0.1915, the “SC.Exp. 1-1” value [5] was 0 and the “SC.Exp. 1-2” value [5] was 2. For the same compound, the “SC.Exp. 2-1” value [5] was 0, the “SC.Exp. 2-2” value [5] was 0 and the “Sum (SC.Exp.)” value [5] was 2. The AvgP [6] was 0, the “SC.Exp. 1-1” value [6] was 5 and the “SC.Exp. 1-2” value [6] was 4. The “SC.Exp. 2-1” value [6] was 2, the “SC.Exp. 2-2” value [6] was 2 and the “SC.Exp. Sum” value [6] was 13.
